{"source": "patent US8877766B2", "about": "“Neuroprotective multifunctional antioxidants and their monofunctional analogs” (priority 2013, dated 2014)", "origin": "cited, not measured here", "key": {"diabetic cataract": {"test_system": "diabetic cataract", "conditions": "diabetic rats; cited from earlier work"}, "radiation cataract": {"test_system": "radiation cataract", "conditions": "Long-Evans rats, 15 Gy whole head gamma irradiation; cited from earlier work"}, "[1]": {"test_system": "light-induced retinal damage", "conditions": "rats; cited from earlier work"}}, "data": [{"compound": "CN(C)S(=O)(=O)N1CC(=O)N(c2ncc(O)cn2)C(=O)C1", "note": "[JHX-4]", "values": [{"measurement": "progression of cataracts", "setting": "diabetic cataract", "result": "delayed the progression of cataracts"}, {"measurement": "cataract formation after irradiation", "setting": "radiation cataract", "result": "significantly delayed cataract formation"}, {"measurement": "protection against light-induced retinal damage", "setting": "[1]", "result": "protects rats against light-induced retinal damage"}]}]}
